What was measured:
Type in all cases: in vivo
[1] = tested on: barnyardgrass (Echinochloa crusgalli); assay: Test B flooded paddy test, visual plant response rating 0-100; details: 250 g ai/ha, Flood, applied to paddy water, evaluated after 13 days
Summary of the method: (§1)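 Plants were grown to the 2-leaf stage, then pots were flooded to 3 cm above the soil and test compounds were applied directly into the paddy water. Water depth was held there throughout; after 13 days in a greenhouse, injury was scored visually against untreated controls.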

[2] = tested on: sedge, umbrella (small-flower umbrella sedge, Cyperus difformis); assay: as above; details: 250 g ai/ha, Flood, applied to paddy water, evaluated after 13 days
Summary of the method: as §1

rice (Oryza sativa) = assay: as above; details: 250 g ai/ha, Flood, applied to paddy water, evaluated after 13 days
Summary of the method: as §1

[3] = tested on: ducksalad (Heteranthera limosa); assay: as above; details: 250 g ai/ha, Flood, applied to paddy water, evaluated after 13 days
Summary of the method: as §1

[4] = tested on: palmer (palmer amaranth, palmer pigweed, Amaranthus palmeri); assay: Test A preemergence soil spray, visual injury rating 0-100; details: 10 days
Summary of the method: (§2)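 Rating: visual, day 10, untreated plants as reference, 0 no effect to 100 full control. Plants were in loam-sand and were treated either preemergence via directed soil spray or postemergence at the one- to two-leaf stage.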

[5] = tested on: blackgrass (Alopecurus myosuroides); assay: as above; details: 10 days
Summary of the method: as §2

corn (Zea mays) [6] = assay: as above; details: 10 days
Summary of the method: as §2

[7] = tested on: wheat (Triticum aestivum); assay: as above; details: 10 days
Summary of the method: as §2

soybean (Glycine max) [8] = assay: as above; details: 10 days
Summary of the method: as §2

[9] = tested on: ryegrass, Italian (italian ryegrass, Lolium multiflorum); assay: as above; details: 10 days
Summary of the method: as §2

[10] = tested on: oat, wild (wild oat, Avena fatua); assay: as above; details: 10 days
Summary of the method: as §2

[11] = tested on: barnyardgrass (Echinochloa crus-galli); assay: as above; details: 10 days
Summary of the method: as §2

[12] = tested on: green foxtail (Setaria viridis); assay: as above; details: 10 days
Summary of the method: as §2

kochia (Bassia scoparia) [13] = assay: as above; details: 10 days
Summary of the method: as §2

[14] = tested on: ragweed (common ragweed, Ambrosia artemisiifolia); assay: as above; details: 10 days
Summary of the method: as §2

[15] = tested on: galium (catchweed bedstraw, Galium aparine); assay: Test A postemergence application, visual injury rating 0-100
Summary of the method: as §2

[16] = tested on: palmer (palmer amaranth, palmer pigweed, Amaranthus palmeri); assay: as above
Summary of the method: as §2

[17] = tested on: blackgrass (Alopecurus myosuroides); assay: as above
Summary of the method: as §2

corn (Zea mays) [18] = assay: as above
Summary of the method: as §2

[19] = tested on: wheat (Triticum aestivum); assay: as above
Summary of the method: as §2

soybean (Glycine max) [20] = assay: as above
Summary of the method: as §2

[21] = tested on: ryegrass, Italian (italian ryegrass, Lolium multiflorum); assay: as above
Summary of the method: as §2

[22] = tested on: oat, wild (wild oat, Avena fatua); assay: as above
Summary of the method: as §2

[23] = tested on: barnyardgrass (Echinochloa crus-galli); assay: as above
Summary of the method: as §2

[24] = tested on: horseweed (Erigeron canadensis); assay: as above
Summary of the method: as §2

[25] = tested on: green foxtail (Setaria viridis); assay: as above
Summary of the method: as §2

kochia (Bassia scoparia) [26] = assay: as above
Summary of the method: as §2

[27] = tested on: ragweed (common ragweed, Ambrosia artemisiifolia); assay: as above
Summary of the method: as §2

[28] = 62 g ai/ha, 0 = no effect, 100 = complete control
[29] = 62 g ai/ha, postemergence, 10 days, 0 = no effect, 100 = complete control
[30] = Postemergence, 16 g ai/ha, greenhouse 10 days, 0 no effect, 100 complete control

With `COC(=O)C1C=CC(NC(=O)C2(C)CN(c3cc(F)cc(F)c3)C(=O)O2)C1` (stereo not shown) [Compound 89] as the compound, how does the “Plant response rating, Barnyardgrass (0 to 100 scale, 0 is no effect and 100 is complete control)” value [1] read?
The value was 95.

And the “Plant response rating, Sedge, Umbrella (0 to 100 scale, 0 is no effect and 100 is complete control)” value [2]?
The value was 95.

And the “Plant response rating, Rice (0 to 100 scale, 0 is no effect and 100 is complete control)” value (rice (Oryza sativa))?
The value was 25.

What about the “Plant response rating, Ducksalad (0 to 100 scale, 0 is no effect and 100 is complete control)” value [3] of the same compound?
The value was 70.

And the “Pigweed, Palmer plant response rating” value ([4]; 16 g ai/ha, 0 to 100 scale)?
Its value is 80.

And the “Pigweed, Palmer plant response rating (0-100)” value [4, 28]?
Its value is 100.

And the “Blackgrass plant response rating” value ([5]; 16 g ai/ha, 0 to 100 scale)?
The value was 30.

What about the “Blackgrass plant response rating (0-100)” value [5, 28] of the same compound?
The value was 70.

What about the “Corn plant response rating” value (corn (Zea mays) [6]; 16 g ai/ha, 0 to 100 scale) of the same compound?
Its value is 30.

What about the “Corn plant response rating (0-100)” value (corn (Zea mays) [6]; [28]) of the same compound?
The value was 100.

And the “Wheat plant response rating” value ([7]; 16 g ai/ha, 0 to 100 scale)?
The value was 90.

And the “Wheat plant response rating (0-100)” value [7, 28]?
Its value is 90.

What about the “Soybean plant response rating” value (soybean (Glycine max) [8]; 16 g ai/ha, 0 to 100 scale) of the same compound?
The value was 40.

What about the “Soybean plant response rating (0-100)” value (soybean (Glycine max) [8]; [28]) of the same compound?
Its value is 80.

And the “Ryegrass, Italian plant response rating” value ([9]; 16 g ai/ha, 0 to 100 scale)?
The value was 80.

And the “Ryegrass, Italian plant response rating (0-100)” value [9, 28]?
Its value is 90.

What about the “Oat, Wild plant response rating” value ([10]; 16 g ai/ha, 0 to 100 scale) of the same compound?
The value was 80.

And the “Oat, Wild plant response rating (0-100)” value [10, 28]?
Its value is 90.

And the “Barnyardgrass plant response rating” value ([11]; 16 g ai/ha, 0 to 100 scale)?
Its value is 70.

And the “Barnyardgrass plant response rating (0-100)” value [11, 28]?
Its value is 100.

And the “Foxtail, Green plant response rating” value ([12]; 16 g ai/ha, 0 to 100 scale)?
The value was 10.

And the “Foxtail, Green plant response rating (0-100)” value [12, 28]?
The value was 100.

What about the “Kochia plant response rating” value (kochia (Bassia scoparia) [13]; 16 g ai/ha, 0 to 100 scale) of the same compound?
Its value is 90.

And the “Kochia plant response rating (0-100)” value (kochia (Bassia scoparia) [13]; [28])?
The value was 100.

And the “Ragweed plant response rating” value ([14]; 16 g ai/ha, 0 to 100 scale)?
Its value is 0.

And the “Ragweed plant response rating (0-100)” value [14, 28]?
The value was 30.

What about the “Galium plant response rating (0-100)” value [15, 29] of the same compound?
Its value is 100.

What about the “Galium plant response rating (0 to 100 scale)” value [15, 30] of the same compound?
Its value is 100.

And the “Pigweed, Palmer plant response rating (0-100)” value [16, 29]?
Its value is 90.

What about the “Pigweed, Palmer plant response rating (0 to 100 scale)” value [16, 30] of the same compound?
Its value is 70.

And the “Blackgrass plant response rating (0-100)” value [17, 29]?
The value was 90.

And the “Blackgrass plant response rating (0 to 100 scale)” value [17, 30]?
The value was 90.

What about the “Corn plant response rating (0-100)” value (corn (Zea mays) [18]; [29]) of the same compound?
The value was 100.

What about the “Corn plant response rating (0 to 100 scale)” value (corn (Zea mays) [18]; [30]) of the same compound?
The value was 90.

And the “Wheat plant response rating (0-100)” value [19, 29]?
Its value is 90.

And the “Wheat plant response rating (0 to 100 scale)” value [19, 30]?
The value was 90.

And the “Soybean plant response rating (0-100)” value (soybean (Glycine max) [20]; [29])?
Its value is 50.

And the “Soybean plant response rating (0 to 100 scale)” value (soybean (Glycine max) [20]; [30])?
Its value is 50.

And the “Ryegrass, Italian plant response rating (0-100)” value [21, 29]?
The value was 90.

And the “Ryegrass, Italian plant response rating (0 to 100 scale)” value [21, 30]?
The value was 90.

And the “Oat, Wild plant response rating (0-100)” value [22, 29]?
Its value is 90.

What about the “Oat, Wild plant response rating (0 to 100 scale)” value [22, 30] of the same compound?
Its value is 90.

And the “Barnyardgrass plant response rating (0-100)” value [23, 29]?
The value was 100.

What about the “Barnyardgrass plant response rating (0 to 100 scale)” value [23, 30] of the same compound?
Its value is 90.

And the “Horseweed plant response rating (0-100)” value [24, 29]?
The value was 80.

And the “Horseweed plant response rating (0 to 100 scale)” value [24, 30]?
Its value is 20.

And the “Foxtail, Green plant response rating (0-100)” value [25, 29]?
Its value is 90.

What about the “Foxtail, Green plant response rating (0 to 100 scale)” value [25, 30] of the same compound?
The value was 60.

What about the “Kochia plant response rating (0-100)” value (kochia (Bassia scoparia) [26]; [29]) of the same compound?
The value was 90.

And the “Kochia plant response rating (0 to 100 scale)” value (kochia (Bassia scoparia) [26]; [30])?
The value was 80.

And the “Ragweed plant response rating (0-100)” value [27, 29]?
The value was 70.

What about the “Ragweed plant response rating (0 to 100 scale)” value [27, 30] of the same compound?
The value was 50.

From US20260285850A1, “SUBSTITUTED OXAZOLIDINONES AND IMIDAZOLINONES AS HERBICIDES” (FMC CORPORATION, priority 2023, published 2026)
